From the supplement of paper PMC10307832

Legend:
Assay in all cases: relative viability (nuclei count vs DMSO), 5 days (fraction); higher = more cells survive
AT-7519 + Pictilisib = compound: O=C(NC1CCNCC1)c1n[nH]cc1NC(=O)c1c(Cl)cccc1Cl [AT-7519] + CS(=O)(=O)N1CCN(Cc2cc3nc(-c4cccc5[nH]ncc45)nc(N4CCOCC4)c3s2)CC1 [Pictilisib] (partner 1 µM)
Summary of the method: (§1)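 Lung cancer cell lines were seeded in 1536-well plates and dosed by pin tool the next day, with either a single drug or a fixed anchor-drug dose combined with five library-drug doses (not always all listed) spaced in √10 steps. Five days later, one step fixed the cells and stained their nuclei (final 0.05% Triton X-100, 1% formaldehyde, 1 ug/ml Hoechst), and nuclei were counted on 4× images. Relative viability is the nuclei count in treated wells divided by the count in vehicle wells, and each value is the median of duplicate plates.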

[1] = compound: C1=CC2=C(C=C(C(=C2N=C1)O)N=NC3=CC4=C(C=C3)C=C(C=C4)S(=O)(=O)O)S(=O)(=O)O + CCNC(=O)c1noc(-c2cc(C(C)C)c(O)cc2O)c1-c1ccc(CN2CCOCC2)cc1 [Luminespib] (partner 0.01 µM)
Summary of the method: as §1

[2] = compound: C1=CC2=C(C=C(C(=C2N=C1)O)N=NC3=CC4=C(C=C3)C=C(C=C4)S(=O)(=O)O)S(=O)(=O)O + CC(=O)Nc1cccc(-n2c(=O)n(C3CC3)c(=O)c3c(Nc4ccc(I)cc4F)n(C)c(=O)c(C)c32)c1 [Trametinib] (partner 0.02 µM)
Summary of the method: as §1

AT-7519 + Olaparib = compound: O=C(NC1CCNCC1)c1n[nH]cc1NC(=O)c1c(Cl)cccc1Cl [AT-7519] + O=C(c1cc(Cc2n[nH]c(=O)c3ccccc23)ccc1F)N1CCN(C(=O)C2CC2)CC1 [Olaparib] (partner 8 µM)
Summary of the method: as §1

Cell Line	relative viability (AT-7519 + Pictilisib; first compound 0.01 µM)	relative viability (AT-7519 + Pictilisib; first compound 0.03162 µM)	relative viability (AT-7519 + Pictilisib; first compound 0.3162 µM)	relative viability (AT-7519 + Pictilisib; first compound 1 µM)	relative viability ([1]; first compound 0.08 µM)	relative viability ([1]; first compound 0.253 µM)	relative viability ([1]; first compound 0.8 µM)	relative viability ([1]; first compound 2.53 µM)	relative viability ([1]; first compound 8 µM)	relative viability ([2]; first compound 0.08 µM)	relative viability ([2]; first compound 0.253 µM)	relative viability ([2]; first compound 0.8 µM)	relative viability ([2]; first compound 2.53 µM)	relative viability ([2]; first compound 8 µM)	relative viability (AT-7519 + Olaparib; first compound 0.01 µM)	relative viability (AT-7519 + Olaparib; first compound 0.03162 µM)	relative viability (AT-7519 + Olaparib; first compound 0.3162 µM)	relative viability (AT-7519 + Olaparib; first compound 1 µM)
SK-LU-1	0.591	0.54	0.5	0.357	0.175	0.203	0.208	0.209	0.175	0.681	0.509	0.517	0.499	0.672	0.462	0.458	0.489	0.324
SK-MES-1	0.457	0.272	0.328	0.276	0.786	0.818	0.735	0.662	0.783	0.514	0.54	0.587	0.585	0.548	0.662	0.791	0.56	0.257
SW 1573	0.576	0.463	0.386	0.196	0.174	0.598	0.268	0.372	0.216	0.514	0.477	0.608	0.564	0.0865	0.463	0.505	0.2	0.0972
